The values that follow come from US8129137B2, “Two-photon probe for real-time monitoring of intracellular free zinc ions, method for preparing the probe and method for real-time monitoring of intracellular free zinc ions using the probe” (Korea University Industrial & Academic Collaboration …, priority 2008, dated 2012).

Experiment [1] is described as follows: Fluorescence enhancement with varying Zn2+ concentrations. The conditions noted are these: for FEF^OP, fluorescence enhancement factor by one-photon process / FEF^TP, fluorescence enhancement factor by two-photon process: (F−Fmin)/Fmin, MOPS buffer pH 7.2, presence of Zn2+. The method, then: The one-photon absorption and emission spectra and two-photon emission spectra of the two-photon probes AZn2 and AZn1 were measured with varying Zn^2+concentrations, and the results are shown in FIGS. 3a through 3f.
As can be known from FIGS. 3a through 3f, when small increments of Zn^2+were added to AZn1 and AZn2 in MOPS buffer solution (30 mM, pH 7.2, /=0.10), the one- and two-photon excitation fluorescence (emission) intensity increased gradually without affecting the absorption spectra, presumably due to the blocking of the photo-induced electron transfer (PET) process by the complexation with Zn^2+.
The fluorescence enhancement factors [FEF=(F−Fmin)/Fmin] of the two-photon probe AZn2 measured for one- and two-photon processes were 2.5-fold larger than those of the two-photon probe AZn1 as a result of the lower fluorescence quantum yield (Φ) in the absence, and higher Φ in the presence, of excess Zn^2+. These analytical results can be more easily understood from the data in Table 2.

Another experiment relates to 293 cells. Briefly: Two-photon microscopy of probe-labeled 293 cells. As to conditions: for TPEF of labeled cells collected at 360-460 nm / TPEF of labeled cells collected at 500-620 nm: 2 μM probe, excitation 780 nm. It is filed as cell-based. The method, then: 293 cells were incubated in DMEM (WelGene) supplemented with 10% FBS (WelGene), penicillin (100 unit/ml) and streptomycin (100 μg/ml).
Two days before imaging, the cells were transferred to glass-bottomed dishes (MatTek) and plated thereon. For labeling, the growth medium was replaced with FBS-free DMEM. The cells were incubated under 5% CO2, 37° C., using a 2 μM sensor for 30 minutes, washed three times with phosphate-buffered saline (PBS; Gibco), and further incubated in a colorless serum-free medium. Meanwhile, primary cortical cultures were taken from cerebral cortices of 1-day-old rats (Sprague-Dawley (SD)). The cerebral cortices were dissociated in Hank's balanced salt solution (HBSS; Gibco BRL, Gaithersburg, Md., USA) containing 1 U/ml papain (Worthington Biochemical Corporation, NJ, USA), plated at a density of 100 to 200 cells/mm^2 on poly-D-lysine and laminin-coated glass cover slips, and maintained in Neurobasal media (Gibco) supplemented with 2% B-27 (Gibco) and penicillin/streptomycin in a CO2 incubator at 37° C. After […] 7-15 days, the cortical cultures were washed three times with PBS and incubated in the presence of AZn2 (2 μM) in PBS at 37° C. for 30 minutes.
Two-photon fluorescence microscopy images of cells and tissue labeled with AZn2 were obtained with spectral confocal and multiphoton microscopes (Leica TCS SP2) with a ×100 oil objective and numerical aperture (NA)=1.30. The two-photon fluorescence microscopy images were obtained by exciting the two-photon probe with a mode-locked titanium-sapphire laser source (Coherent Chameleon, 90 MHz, 200 fs) set at wavelength of 780 nm and an output power of 1,230 mW, which corresponded to approximately 10 mW average power in the focal plane. To obtain images at 360-460 nm and 500-620 nm range, internal PMTs were used to collect the signals in an 8 bit unsigned 512×512 pixels at 400 Hz scan speed.
Moreover, because the fluorescence intensities of the two-photon probes increase slightly at pH<4 (FIGS. 8a and 8b), there is a possibility that the probes in the acidic vesicles might partially contribute to the TPM images. To rule out such possibility, 293 cells and primary cortical cultures were co-stained with AZn2 and LysoTracker Red (LTR), a well known one-photon fluorescent probe for the acidic vesicles, and the images were co-localized.
More specifically, (a) and (f) are bright field images, (b) and (g) are pseudo colored images of the AZn2-labeled 293 cells collected at 360-460 nm, (c) and (h) are pseudo colored images of the AZn2-labeled 293 cells collected at 500-580 nm, (d) and (i) are OPM images of the LTR-labeled 293 cells collected at 600-650 nm, and (e) and (j) are co-localized images. The one-photon and two-photon excitations were performed at 543 nm and 780 nm, respectively, the scale bar is 30 μm, and the images shown are representative images from replicate experiments (n=5).
FIG. 13 is images of AZn1- and LTR (2 μM for each)-labeled 293 cells: (a)-(e) and (f)-(j) are images of the labeled cells before and after addition of 100 μM TPEN to the imaging solution, respectively. More specifically, (a) and (f) are bright field images; (b) and (g) are pseudo colored images of the AZn1-labeled 293 cells collected at 360-460 nm; (c) and (h) are pseudo colored images of the AZn1-labeled 293 cells collected at 500-580 nm; (d) and (i) are OPM images of the LTR-labeled 293 cells collected at 600-650 nm; and (e) and (j) are co-localized images. […]

On to `Nc1ccc(NCCN(Cc2ccccn2)Cc2ccccn2)cc1` [AZn1], for which, in experiment [1], the “FEF^OP, fluorescence enhancement factor by one-photon process” value came to 21 and the “FEF^TP, fluorescence enhancement factor by two-photon process” value is 24. Further, in the experiment on 293 cells, the “TPEF of labeled cells collected at 360-460 nm” value is reported as “no TPEF” and the “TPEF of labeled cells collected at 500-620 nm” value was “appreciable TPEF”.
Turning to `COc1cc(NC(=O)CN(C)c2ccc3cc(C(C)=O)ccc3c2)ccc1NCCN(Cc1ccccn1)Cc1ccccn1` [AZn2], in experiment [1], the “FEF^OP, fluorescence enhancement factor by one-photon process” value amounted to 54 and the “FEF^TP, fluorescence enhancement factor by two-photon process” value is recorded as 52. Besides, the “FEF (one- and two-photon) relative to AZn1” value in experiment [1] (larger than those of AZn1) is listed as 2.5 fold. For the same compound, in the experiment on 293 cells, the “intracellular location of probe” value is recorded as “predominantly located in the cytosolic compartments”, the “TPEF of labeled cells collected at 360-460 nm” value is “no TPEF” and the “TPEF of labeled cells collected at 500-620 nm” value is listed as “appreciable TPEF”.
